Here are results for 29 compounds from ChEMBL document CHEMBL6071163, “The multicomponent Passerini reaction as a means of accessing diversity in structure, activity and properties: Soft and hard vanilloid/cannabinoid modulators” (Eur J Med Chem, 2024).

Data set [1] addresses T1, Cannabinoid receptor 2 (Homo sapiens, UniProt P34972). Description: Antagonist activity at recombinant human CB2 receptor expressed in HEK293-CNG cells assessed as cAMP accumulation incubated for 60 mins in presence of forskolin by fluorescence based analysis. It counts as functional, cell-based. On the technique in general: Cyclic AMP is a second messenger, typically raised through Gs and lowered through Gi signalling.

Data set [2] concerns the target T2, Transient receptor potential cation channel subfamily V member 1 (Homo sapiens, UniProt Q8NER1). The data set is described as follows: Agonist activity at recombinant human TRPV1 transfected in HEK293 cells assessed as increase in intracellular Ca2+ influx by Fluo-4 NW Ca2+ dye based microfluorometric calcium flux assay. Background: Calcium assays in cells follow changes in intracellular calcium, usually with a dye or a luminescent sensor.

Another data set has as its target Cannabinoid receptor 1 (Homo sapiens, UniProt P21554). The data set is described as follows: Agonist activity at recombinant human CB1 receptor expressed in HEK293-CNG cells assessed as reduction in forskolin-induced cAMP accumulation incubated for 60 mins by fluorescence based analysis. It counts as functional, cell-based.
For data set [3], the target named is T1, Cannabinoid receptor 2. Description: Agonist activity at recombinant human CB2 receptor expressed in HEK293-CNG cells assessed as reduction in forskolin-induced cAMP accumulation incubated for 60 mins by fluorescence based analysis. It counts as functional, cell-based.
The target of data set [4] is T2, Transient receptor potential cation channel subfamily V member 1.
Data set [5] is described as follows: Metabolic stability in human Keratinocytes assessed as parent compound remaining at 5 uM incubated for 120 mins.
The nature of data set [6]: Metabolic stability in human plasma assessed as parent compound remaining at 50 uM incubated for 60 mins.
Data set [7] in a line: Metabolic stability in human liver S9 fraction assessed as parent compound remaining at 5 uM incubated for 60 mins.
A short description of data set [8]: Metabolic stability in human HaCaT cells assessed as parent compound remaining at 5 uM incubated for 120 mins.
Data set [9] in a line: Metabolic stability in human skin S9 fraction assessed as parent compound remaining at 5 uM incubated for 60 mins.
Data set [10] in a line: Metabolic stability in human Fibroblast assessed as parent compound remaining at 5 uM incubated for 120 mins. The following applies: fibroblasts.
Data set [11] has as its target T2, Transient receptor potential cation channel subfamily V member 1. Description: Agonist activity at human TRPV1 expressed in HEK293 cells assessed as induction of current by patch clamp assay.

Molecules are shown by their SMILES.

Chain of Cannabinoid receptor 1 (P21554 whole entry): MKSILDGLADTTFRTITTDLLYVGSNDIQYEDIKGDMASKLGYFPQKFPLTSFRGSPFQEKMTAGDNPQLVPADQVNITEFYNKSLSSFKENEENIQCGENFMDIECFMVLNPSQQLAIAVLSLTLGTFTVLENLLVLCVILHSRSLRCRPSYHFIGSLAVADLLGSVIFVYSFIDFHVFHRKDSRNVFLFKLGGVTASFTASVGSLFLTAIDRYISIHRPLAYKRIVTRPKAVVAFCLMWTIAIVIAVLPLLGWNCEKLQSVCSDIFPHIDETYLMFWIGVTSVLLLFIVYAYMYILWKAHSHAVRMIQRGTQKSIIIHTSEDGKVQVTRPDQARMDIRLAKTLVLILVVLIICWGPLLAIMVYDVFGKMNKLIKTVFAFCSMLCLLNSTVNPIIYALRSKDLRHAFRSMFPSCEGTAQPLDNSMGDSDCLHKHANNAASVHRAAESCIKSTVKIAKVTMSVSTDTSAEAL
T2 sequence (Q8NER1 whole entry): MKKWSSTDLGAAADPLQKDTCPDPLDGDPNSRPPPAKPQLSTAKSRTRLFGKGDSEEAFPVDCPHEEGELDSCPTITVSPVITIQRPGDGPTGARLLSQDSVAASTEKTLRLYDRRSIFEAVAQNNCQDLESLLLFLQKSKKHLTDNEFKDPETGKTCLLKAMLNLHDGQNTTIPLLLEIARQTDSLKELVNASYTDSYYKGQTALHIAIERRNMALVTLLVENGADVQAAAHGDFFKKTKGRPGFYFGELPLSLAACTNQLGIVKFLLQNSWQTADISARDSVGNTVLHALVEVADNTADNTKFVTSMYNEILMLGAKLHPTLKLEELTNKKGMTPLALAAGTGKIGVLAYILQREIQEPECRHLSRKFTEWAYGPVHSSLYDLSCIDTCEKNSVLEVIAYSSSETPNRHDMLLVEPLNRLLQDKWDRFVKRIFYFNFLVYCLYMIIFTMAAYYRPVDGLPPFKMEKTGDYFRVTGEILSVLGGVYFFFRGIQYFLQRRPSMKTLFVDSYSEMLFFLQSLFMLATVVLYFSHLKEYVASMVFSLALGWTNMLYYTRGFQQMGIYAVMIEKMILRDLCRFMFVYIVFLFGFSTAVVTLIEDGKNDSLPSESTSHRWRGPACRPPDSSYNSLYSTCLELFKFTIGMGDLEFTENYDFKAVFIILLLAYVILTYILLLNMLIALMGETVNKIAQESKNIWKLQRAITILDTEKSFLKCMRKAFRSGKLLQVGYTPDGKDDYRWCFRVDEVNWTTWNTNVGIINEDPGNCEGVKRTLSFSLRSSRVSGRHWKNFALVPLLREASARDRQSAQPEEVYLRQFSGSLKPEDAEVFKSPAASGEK
T1 sequence (P34972 whole entry): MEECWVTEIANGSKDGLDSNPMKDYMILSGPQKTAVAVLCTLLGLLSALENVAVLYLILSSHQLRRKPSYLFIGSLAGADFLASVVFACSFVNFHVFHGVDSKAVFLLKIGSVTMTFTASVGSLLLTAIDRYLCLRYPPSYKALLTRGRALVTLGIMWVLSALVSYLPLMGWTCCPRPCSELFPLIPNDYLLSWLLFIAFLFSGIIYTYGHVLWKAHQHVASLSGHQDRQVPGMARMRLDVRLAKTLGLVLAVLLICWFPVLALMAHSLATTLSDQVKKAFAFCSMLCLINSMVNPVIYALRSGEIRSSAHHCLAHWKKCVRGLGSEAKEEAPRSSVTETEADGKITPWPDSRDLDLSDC

In the case of `COc1ccc(C(=O)c2c(C)n(CCN3CCOCC3)c3cc(I)ccc23)cc1`, on Cannabinoid receptor 2 [1], the IC50 came to 0.03 µM.

As to `O=C(CO)NCCO`, the EC50 (in data set [2]; at Cannabinoid receptor 1; at Cannabinoid receptor 2 [3]) was over 100 µM each time.

Turning to `CCCCCC[C@H](C/C=C\CCCCCCCC(=O)OCC(=O)NCCc1cc(O)c(O)cc1I)OC(=O)Cc1ccccc1`, the IC50 in [4] is over 100 µM.

Take `C=CCNC(=O)COC(=O)CCCCCCCCCCC`: the EC50 in data set [2] was 11.4 µM.

`C=CCNC(=O)COC(=O)CCCCCCC/C=C\C[C@@H](CCCCCC)OC(=O)Cc1ccccc1`: the EC50 in data set [2] is 15.2 µM.

For `CCCCCCCC/C=C\CCCCCCCC(=O)OCC(=O)NC1CC1`, the concentration for a half-maximal effect (EC50) is 0.7 µM in [2] and 27.9 µM on Cannabinoid receptor 1.

Consider `O=C(CO)NCCc1cc(O)c(O)cc1I`, for which the EC50 at Cannabinoid receptor 1 and on Cannabinoid receptor 2 [3] was over 100 µM in each case. The half-maximal inhibitory concentration (IC50) in [4] was over 100 µM.

In the case of `C=CCNC(=O)CO`, the concentration for a half-maximal effect (EC50) (in data set [2]; on Cannabinoid receptor 1; at Cannabinoid receptor 2 [3]) was over 100 µM each time.

With `CCCCC/C=C\C/C=C\C/C=C\C/C=C\CCCC(=O)OCC(=O)NCCO`, the EC50 stood at 2.1 µM in [2] and 30.6 µM on Cannabinoid receptor 1. Besides, the results for the share remaining at 2 h, 5 µM in data set [5], in [8] and in data set [10] were 97%, over 99% and 73%, respectively. For the same compound, in data set [6], the fraction remaining at 1 h, 50 µM is over 99%. The fraction remaining at 1 h, 5 µM in data set [7] was 24%; in data set [9], 76%.

Consider `CC(C)=CCC/C(C)=C/C(=O)OCC(=O)NC1CC1`, for which the EC50 in data set [2] came to 33.1 µM.

Consider `CCCCCC[C@H](C/C=C\CCCCCCCC(=O)OCC(=O)NC1CC1)OC(=O)Cc1ccccc1`, for which the EC50 in [2] came out at 2.6 µM.

`CCCCCCCCCCCC(=O)OCC(=O)NC1CC1`: the EC50 amounted to 1.7 µM in [2] and 87.6 µM on Cannabinoid receptor 2 [3]. The amount remaining at 2 h, 5 µM came out at 99% in [5], 94% in [8] and 62% in data set [10]. Besides, the fraction remaining at 1 h, 50 µM in data set [6] was found to be 80%. For the same compound, the amount remaining at 1 h, 5 µM in data set [7] worked out at 1%; in data set [9], 69%.

Regarding `CC(C)=CCC/C(C)=C/C(=O)OCC(=O)NCCO`, the results for the EC50 (in [2]; at Cannabinoid receptor 2 [3]; in data set [11]) were 26.8 µM, 37.8 µM and 47.5 µM, respectively. Further, the results for the share remaining at 2 h, 5 µM in data set [5], in [8] and in data set [10] were 96%, 98% and 93%, respectively. Also, the fraction remaining at 1 h, 50 µM in [6] is 89%. The results for the amount remaining at 1 h, 5 µM in [7] and in data set [9] were 89% and 96%, respectively.

As to `CC(C)=CCC/C(C)=C/C(=O)OCC(=O)NCCc1cc(O)c(O)cc1I`, the EC50 at Cannabinoid receptor 1 turned out to be 41.4 µM; at Cannabinoid receptor 2 [3], 36.8 µM.

Turning to `C=CCNC(=O)COC(=O)CC/C(C)=C/CC/C(C)=C/CC/C=C(\C)CC/C=C(\C)CCC=C(C)C`, the EC50 in data set [2] stood at 36.4 µM.

Consider `CCCCCCCC(=O)OCC(=O)NCCc1cc(O)c(O)cc1I`, for which the amount remaining at 2 h, 5 µM in data set [5] was 85%; in [8], 73%; in data set [10], 69%. Moreover, in data set [6], the amount remaining at 1 h, 50 µM was found to be 13%. For the same compound, the results for the fraction remaining at 1 h, 5 µM in [7] and in data set [9] were 1% and 27%, respectively. Moreover, in [4], the IC50 turned out to be 54.2 µM. Moreover, the EC50 at Cannabinoid receptor 2 [3] is over 100 µM.

On to `CCCCCCCC(=O)OCC(=O)NCCc1ccc(O)c(O)c1`, for which the EC50 in [2] was 10.6 µM; at Cannabinoid receptor 1 it was 13.9 µM.

`CC(C)=CCC/C(C)=C/C(=O)OCC(=O)NCCc1ccc(O)c(O)c1`: the values for the EC50 on Cannabinoid receptor 1 and on Cannabinoid receptor 2 [3] were 118 µM and 89.9 µM, respectively.

For `O=C(CO)NCCc1ccc(O)c(O)c1`, the concentration for a half-maximal effect (EC50) at Cannabinoid receptor 1 and at Cannabinoid receptor 2 [3] was over 100 µM throughout.

With `CCCCCC[C@H](C/C=C\CCCCCCCC(=O)OCC(=O)NCCO)OC(=O)Cc1ccccc1`, in [2], the EC50 is 3.7 µM.

In the case of `C=CCNC(=O)COC(=O)CCCCCCC/C=C\CCCCCCCC`, in data set [2], the EC50 stood at 4.7 µM.

As for `CCCCC/C=C\C/C=C\C/C=C\C/C=C\CCCC(=O)OCC(=O)NCCc1ccc(O)c(O)c1`, in data set [2], the EC50 is 1 µM.

The compound `CCCCCCCCCCCC(=O)OCC(=O)NCCc1cc(O)c(O)cc1I` displayed a 50% inhibitory concentration (IC50) in data set [4] of 64.9 µM.

For `CCCCC/C=C\C/C=C\C/C=C\C/C=C\CCCC(=O)OCC(=O)NC1CC1`, at Cannabinoid receptor 1, the EC50 was determined as 13.8 µM.

Consider `CC(C)=CCC/C(C)=C/CC/C(C)=C/CC/C=C(\C)CC/C=C(\C)CCC(=O)OCC(=O)NC1CC1`, for which the figures for the EC50 (in data set [2]; at Cannabinoid receptor 1) were 13.4 µM and 196 µM, respectively.

Turning to `O=C(CO)NC1CC1`, the concentration for a half-maximal effect (EC50) (in data set [2]; at Cannabinoid receptor 1; on Cannabinoid receptor 2 [3]) was over 100 µM in each case.

Regarding `C=CCNC(=O)COC(=O)CCC/C=C\C/C=C\C/C=C\C/C=C\CCCCC`, the EC50 in data set [2] was determined as 21.8 µM; at Cannabinoid receptor 1, 16.6 µM; at Cannabinoid receptor 2 [3] it was 62 µM.

Take `CCCCCC[C@H](C/C=C\CCCCCCCC(=O)OCC(=O)NCCc1ccc(O)c(O)c1)OC(=O)Cc1ccccc1`: the EC50 in data set [2] worked out at 3.1 µM.

For `C=CCNC(=O)COC(=O)CCCCCCC`, the EC50 in data set [2] is 23.3 µM.

A word on the IC50: it is the concentration that gives 50% inhibition. As usually defined, the EC50 is the concentration at which the effect is half-maximal. For orientation: amount remaining means what is left of the initial amount, in per cent.
